Source: patent publication US12364706B2, “Modified aminoglycoside compounds and uses thereof in disabling bacterial ribosome” (Technion Research & Development Foundation Limited, priority 2018, dated 2025)

Legend:
E. coli ribosomes = assay: rRNA cleavage experiments with full-size E. coli ribosomes (gel electrophoresis); format: biochemical
[1] = test system: Gram-positive pathogenic MRSA strains; assay: Antibacterial activity (MIC, double-microdilution) against MRSA strains; format: cell-based; details: relative to NeoB
Description: (§1) Comparative antibacterial activities were determined by measuring the MIC values by using the double-microdilution method according to the National Committee for Clinical Laboratory Standards (NCCLS).
(§2) All the experiments were performed in triplicate, and analogous results were obtained in three different experiments.
The resistant strains included MRSA, a Gram-positive bacterium, the treatment of which represents a great challenge in the clinic; MRSA 252, which is known for its high resistance to aminoglycosides [M. T. G. Holden, E. J. Feil, J. A. Lindsay, S. J. Peacock, N. P. J. Day, M. C. Enright, T. J. Foster, C. E. Moore, L. Hurst, R. Atkin, et al., Proc. Natl. Acad. Sci. USA 2004, 101, 9786-9791]; and MRSA CI 15877, which is resistant to natural aminoglycosides [G. Kaneti, H. Sarig, I. Marjieh, Z. Fadia, A. Mor, FASEB J. 2013, 27, 4834-4843].

[2] = test system: E. coli S30 extract for circular DNA with the pBESTluc plasmid; assay: Prokaryotic in vitro translation inhibition, coupled transcription/translation assay; format: biochemical; details: for IC50: prokaryotic system, 37° C., 60 minutes, read-out: IC50 values, protein translation inhibition (half-maximum inhibition levels); for inhibitory potency of protein translation compared with NeoB: relative to NeoB
Description: Prokaryotic in vitro translation inhibition by the different standard and synthetic aminoglycosides was quantified in coupled transcription/translation assays by use of E. coli S30 extract for circular DNA with the pBESTluc plasmid (Promega), according to the manufacturer's protocol.
Translation reactions ([…]) containing variable concentrations of the tested aminoglycoside were incubated at 37° C. for 60 minutes, cooled on ice for 5 minutes, and diluted with a dilution reagent [Tris-phosphate buffer (25 mm, pH 7.8), dithiothreitol (DTT, 2 mm), 1,2-diaminocyclohexanetetraacetate (2 mm), glycerol (10%), triton X100 (1%), and bovine serum albumin (BSA, 1 mg/mL] into 96-well plates.
The luminescence was measured immediately after the addition of Luciferase Assay Reagent (Promega) ([…]), and light emission was recorded with a Victor3 Plate Reader (PerkinElmer).
The concentration of half-maximal inhibition (IC^50) was obtained from fitting concentration-response curves to the data of at least three independent experiments by using Grafit 5 software.

[3] = test system: WT and aminoglycoside-resistant strains, including Gram-negative and Gram-positive bacteria; assay: Antibacterial activity (MIC) against WT and aminoglycoside-resistant strains; format: cell-based
Description: as §1, §2
The minimal inhibitory concentration (MIC) values of the newly designed exemplary Compounds 1-10 were determined against wild-type (WT) Gram-negative and Gram-positive bacteria.
The bacterial strains that were included in these tests were as follows:
Two wild-type (WT) E. coli strains (R477-100 and 25922) as representatives of Gram-negative bacteria with unknown resistance to aminoglycosides [V. Pokrovskaya, V. Belakhov, M. Hainrichson, S. Yaron, T. Baasov, J. Med. Chem. 2009, 52, 2243-2254] and two WT Staphylococcus epidermidis and Bacillus subtilis strains as representatives of Gram-positive bacteria (the clinically used aminoglycosides have significant antibacterial activity against these strains) [J. Kondo, M. Hainrichson, I. Nudelman, D. Shallom-Shezifi, C. M. C. M. Barbieri, D. S. D. S. Pilch, E. Westhof, T. Baasov, ChemBioChem 2007, 8, 1700-1709]. […]

[4] = test system: adenylyl(3′-5′)-adenosine (ApA); details: relative to 1,3-propanediamine; cited from earlier work
[5] = test system: Geobacillus T1 harboring the resistance to kanamycin; assay: Antibacterial activity against kanamycin-resistant Geobacillus T1; format: cell-based
Description: as §1, §2

**Q.** Which “cleavage of rRNA in full ribosomes” value (E. coli ribosomes; pH 7) does the source give for `NCCN` [ethylenediamine] here?
**A.** did not cleave the full ribosome

**Q.** Which “MIC values, times lower than that of NeoB” value [1] does the source give for “4′-O-(2-aminoethylamino)ethyl-neomycin [Compound 2]” here?
**A.** 64 times

**Q.** Which “cleavage of rRNA in full ribosomes” value (E. coli ribosomes; pH 7) does the source give for `CNCCNCCO[C@H]1[C@H](O)[C@@H](N)[C@@H](O[C@H]2[C@H](O[C@@H]3O[C@H](CO)[C@@H](O[C@H]4O[C@@H](CN)[C@@H](O)[C@H](O)[C@H]4N)[C@H]3O)[C@@H](O)[C@H](N)C[C@@H]2N)O[C@@H]1CN` [Compound 3, 4′-O-(2-(methylamino)ethylamino)ethyl-neomycin] here?
**A.** did not show any signs of the cleaved product

**Q.** With `NCCNCC(=O)N[C@H]1[C@H](O)[C@@H](N)[C@@H](O[C@H]2[C@H](O[C@@H]3O[C@H](CO)[C@@H](O[C@H]4O[C@@H](CN)[C@@H](O)[C@H](O)[C@H]4N)[C@H]3O)[C@@H](O)[C@H](N)C[C@@H]2N)O[C@@H]1CN` [Compound 6, 4′-(2-(aminoethylamino)acetamido)-4′-deoxy-neomycin] as the molecule, how does the IC50 [2] read?
**A.** 6 nM

**Q.** And the “inhibitory potency of protein translation compared with NeoB” value [2]?
**A.** two-fold higher than that of NeoB

**Q.** Which results are given for `NCCNCC(=O)NC[C@H]1O[C@H](O[C@H]2[C@H](O[C@@H]3O[C@H](CO)[C@@H](O[C@H]4O[C@@H](CN)[C@@H](O)[C@H](O)[C@H]4N)[C@H]3O)[C@@H](O)[C@H](N)C[C@@H]2N)[C@H](N)[C@@H](O)[C@@H]1N` [Compound 9, 4′-amino-6′-(2-(aminoethylamino)acetamido)-4′-deoxy-neomycin]?
**A.** IC50 [2]: 5 nM; inhibitory potency of protein translation compared with NeoB [2]: two-fold higher than that of NeoB

**Q.** For “4′-O-(2-aminoethylamino)ethyl-paromamine [Compound 1]”, which antibacterial activity [3] is on record?
**A.** substantially lower than that of the other compounds tested

**Q.** Which “hydrolysis of ApA, faster than 1,3-propanediamine” value [4] does the source give for `NC[C@@H]1O[C@H](O[C@H]2[C@@H](O)[C@H](O[C@@H]3[C@@H](O)[C@H](N)C[C@H](N)[C@H]3O[C@H]3O[C@H](CN)[C@@H](O)[C@H](O)[C@H]3N)O[C@@H]2CO)[C@H](N)[C@@H](O)[C@@H]1O` [NeoB, Neomycin B] here?
**A.** 3 fold

**Q.** What about the antibacterial activity [5] of the same molecule?
**A.** almost lost its activity

**Q.** What about the “cleavage of rRNA in full ribosomes” value (E. coli ribosomes; concentrations up to 400 mM, 24 hours, 37° C., pH 7.0) of the same molecule?
**A.** did not show any signs of the cleaved product

**Q.** And the IC50 [2]?
**A.** 10 nM

**Q.** Which IC50 [2] does the source give for `NCCNCCNCC(=O)NC[C@H]1O[C@H](O[C@H]2[C@H](O[C@@H]3O[C@H](CO)[C@@H](O[C@H]4O[C@@H](CN)[C@@H](O)[C@H](O)[C@H]4N)[C@H]3O)[C@@H](O)[C@H](N)C[C@@H]2N)[C@H](N)[C@@H](O)[C@@H]1N` [Compound 10, 4′-amino-6′-[2-(2-(2-aminoethylamino)ethylamino)acetamido]-4′-deoxy-neomycin] here?
**A.** 6 nM

**Q.** And the “inhibitory potency of protein translation compared with NeoB” value [2]?
**A.** two-fold higher than that of NeoB

**Q.** With `NCCNCCNCC(=O)NC1C(CN)OC(OC2C(N)CC(N)C(O)C2OC2OC(CO)C(OC3OC(CN)C(O)C(O)C3N)C2O)C(N)C1O` (stereo not drawn) [Compound 8, 4′-[2-(2-(2-aminoethylamino)ethylamino)acetamido]-4′-deoxy-neomycin] as the molecule, how does the “MIC values, times lower than that of NeoB” value [1] read?
**A.** 64 times
